Test results taken from patent US20080009025A1, “PROTEIN KINASE REGULATION” (priority 1999, published 2008).
Where a SMILES comes first, the peptide text is derived from it.

What was measured:
PDK1 [1] = conditions: ref [24], cited from earlier work
PDK1 [2] = target: T1, PDK1 (Homo sapiens, UniProt O15530); assay: PDK1 activity towards synthetic peptide substrates T308tide or PDKtide; format: biochemical; set-up: Full length PDK1 (residues 1-556); made in house; host or cells: 293 cells; conditions: substrate T308tide
T1 sequence (O15530 1-556): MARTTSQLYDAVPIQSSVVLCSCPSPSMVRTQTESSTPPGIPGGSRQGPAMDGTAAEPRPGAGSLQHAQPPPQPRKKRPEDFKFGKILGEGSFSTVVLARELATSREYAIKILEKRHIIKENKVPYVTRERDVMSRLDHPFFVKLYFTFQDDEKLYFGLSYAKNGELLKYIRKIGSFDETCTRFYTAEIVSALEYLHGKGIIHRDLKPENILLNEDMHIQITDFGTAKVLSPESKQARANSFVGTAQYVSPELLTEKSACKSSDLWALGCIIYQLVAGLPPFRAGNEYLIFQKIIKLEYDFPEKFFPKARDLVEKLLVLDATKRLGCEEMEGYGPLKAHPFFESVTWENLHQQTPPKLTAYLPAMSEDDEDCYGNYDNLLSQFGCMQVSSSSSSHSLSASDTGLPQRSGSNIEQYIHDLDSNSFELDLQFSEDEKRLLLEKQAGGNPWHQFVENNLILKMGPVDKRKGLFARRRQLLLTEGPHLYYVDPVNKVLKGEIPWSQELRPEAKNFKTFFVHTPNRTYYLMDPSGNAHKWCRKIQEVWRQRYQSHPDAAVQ
Protocol: FIG. 12. PDK1 is activated and stabilised through its interaction with PIFtide. (A) GST-PDK1 activity was measured in the presence of increasing concentrations of wild type (wt) PIFtide (closed circles) or a mutant D978A PIFtide (open circles) using the synthetic peptide substrate termed T308tide, as described in Material and Methods. The data was fitted to a hyperbola using the Kaleidagraph™ software. The connection needed to obtain 50% activation of PDK1 was […] for wt-PIFtide and 1.1 μM for D978A-PIFtide. The assay shown was performed in triplicate and there was less than 5% difference between each assay. Similar results were obtained in 2 further experiments (B)—The wild type GST-PDK1 (circles) or the L155D mutant of GST-PDK1 (squares) was incubated in the presence (closed symbols) or absence (open symbols) of […] PIFtife and then for 2 min at the indicated temperatures, rapidly brought to 0° C. (see Materials and Methods), and 2 min later assayed at 30° C. for 10 min using T308tide as substrate. The activity of PDK1 obtained by incubation at 30° C. was taken as 100%. The assay shown was performed in duplicate with similar results obtained in two separate experiments.
FIG. 14. […] (A) His-PDK1 was assayed for activity using as substrate the indicated concentration of either PDKtide (open triangles) or T308tide (open circles). […]
PDK1's ability to phosphorylate Thr308 of PKBα was measured using a mutant of GST-PKBα in which Ser473 was mutated to Asp (GST-473D PKBα) in the presence of phospholipid vesicles containing sn-1-stearoyl-2-arachidonoyl-D-PtdIns (3, 4, 5)P3 [13]. […] 35 μl of the resultant mixture was spotted into P81 phosphocellulose paper (2×2 cm) and the papers washed and analysed as described previously for assays of MAP kinase. […] Control assays were carried out in parallel in which either PDK1, or peptide substrate were omitted; these values were always less than 5% of the activity measured in the presence of these reagents. […]

PKBα = assay: IGF1-induced activation and Ser473 phosphorylation of HA-PKBα in co-transfected 293 cells; format: cell-based, human
Protocol: FIG. 4. […] 293 cells were co-transfected with constructs expressing the wild type full length HA-PKBα with either GST-PIF or GST. 24 h post transfection the cells were serum starved for 16 h and then stimulated for 15 min with 100 nM IGF1. The cells were lysed and HA-PKBα was immunoprecipitated and assayed as described in Methods. Protein from each lysate (10 μg) was electrophoresed on a 10% SDS/polyarylamide gel and immunoblotted using HA-antibody or the S473-P antibody. The HA-PKBα activities shown are the averages ±SEM for a single experiment carried out in triplicate, similar results were obtained in 3 separate experiments.
293 cells cultured on 10 cm diameter dishes in Dulbecco's Modified Eagle's Medium containing 10% (by vol) foetal bovine serum, were transfected with 2 μg of DNA construct encoding either wild type or mutant HA-p70 S6K or HA-PKBα, and 10 μg of DNA construct encoding either GST-PIF, GST-F977A-PIF, GST, Myc-PDK1, kinase-dead Myc-PDK1, or the empty pCMV5 vector using a modified calcium phosphate method. 24 h post transfection the cells were deprived of serum for 16 h, and exposed to IGF1 (100 nM) for the time indicated. […] The protein concentrations of the lysates were determined by the Bradford method. […]

CC[C@H](C)[C@H](NC(=O)[C@H](CCCNC(=N)N)NC(=O)[C@@H]1CCCN1C(=O)[C@H](CCC(=O)O)NC(=O)[C@@H](N)CCCNC(=N)N)C(=O)N[C@@H](CC(C)C)C(=O)N[C@@H](CO)C(=O)N[C@@H](CCC(=O)O)C(=O)N[C@@H](CCC(=O)O)C(=O)N[C@@H](CCC(=O)O)C(=O)N[C@@H](CCC(N)=O)C(=O)N[C@@H](CCC(=O)O)C(=O)N[C@@H](CCSC)C(=O)N[C@@H](Cc1ccccc1)C(=O)N[C@@H](CCCNC(=N)N)C(=O)N[C@@H](CC(=O)O)C(=O)N[C@@H](Cc1ccccc1)C(=O)N[C@@H](C)C(=O)N[C@@H](Cc1ccc(O)cc1)C(=O)N[C@@H](CC(C)C)C(=O)N[C@@H](C)C(=O)N[C@@H](CC(=O)O)C(=O)N[C@@H](Cc1c[nH]c2ccccc12)C(=O)N[C@@H](CS)C(=O)O [D978A-PIFtide] (H-REPRILSEEEQEMFRDFAYLADWC-OH; N-terminus and C-terminus assumed)
reduced affinity for PDK1 compared with wild type PIFtide (PDK1 [1]): 10 fold
less effective at inducing PDK1 activation than wild type PIFtide (PDK1 [2]): 8 fold

CC[C@H](C)[C@H](NC(=O)[C@H](Cc1ccc(O)cc1)NC(=O)[C@H](CC(=O)O)NC(=O)[C@H](Cc1ccccc1)NC(=O)[C@H](CC(=O)O)NC(=O)[C@H](CCCNC(=N)N)NC(=O)[C@H](Cc1ccccc1)NC(=O)[C@H](CCSC)NC(=O)[C@H](CCC(=O)O)NC(=O)[C@H](CCC(N)=O)NC(=O)[C@H](CCC(=O)O)NC(=O)[C@H](CCC(=O)O)NC(=O)[C@H](CCC(=O)O)NC(=O)[C@H](CO)NC(=O)[C@H](CC(C)C)NC(=O)[C@@H](NC(=O)[C@H](CCCNC(=N)N)NC(=O)[C@@H]1CCCN1C(=O)[C@H](CCC(=O)O)NC(=O)[C@@H](N)CCCNC(=N)N)[C@@H](C)CC)C(=O)N[C@@H](C)C(=O)N[C@@H](CC(=O)O)C(=O)N[C@@H](Cc1c[nH]c2ccccc12)C(=O)N[C@@H](CS)C(=O)O [PIFtide] (H-REPRILSEEEQEMFRDFDYIADWC-OH; N-terminus and C-terminus assumed)
Kd (PDK1 [1]; read-out: affinity of PDK1 for PIFtide (Kd)): ~300 nM
EC50 (PDK1 [2]; GST-PDK1, read-out: concentration required for half-maximal (50%) activation of PDK1): 140 nM
increase in PDK1 activity towards T308tide (PDK1 [2]): up to 4 fold

GST-PIF: glutathione S-transferase fused to the last 77 residues of PRK2 (PIF)
IGF1-induced phosphorylation of HA-PKBα at Ser473 (PKBα): did not inhibit or potentiate
